In patent US4260608A, “Maytansinoids, pharmaceutical compositions thereof and methods of use thereof” (Takeda Chemical Industries, Ltd., priority 1978, dated 1981):
In brackets after ≈: the same amount, converted by molar mass. Where two headings read alike, the source gives them in different places.

What was measured:
Tetrahymena pyriformis W = assay: Antiprotozoal activity, growth inhibition by serial dilution method; type: cell-based
Method: Antiprotozoal activity of compound (I) was assayed with Tetrahymena pyriformis W as the test organism and a medium composed of 20 g tryptose-peptone (Difco Co.), 1 g yeast extract, 2 g glucose, 1000 ml distilled water, 10 ml 1 M phosphate buffer (pH 7.0) as the assay medium. The microorganism was incubated at 28° C. for 44 to 48 hours and the growth inhibitory activity of compound (I) was assayed by the serial dilution method.

[1] = tested on: melanoma B-16 tumor cells; assay: Antitumor activity, life span prolongation in mice transplanted intraperitoneally with melanoma B-16; type: in vivo; conditions: intraperitoneal, once daily for 9 consecutive days
Method: Therapeutic tests were carried out in mice according to NCI-protocol 1,300, Cancer Chemother, Reports, Part 3, 1972, Vol. 3, No. 2, in which melanoma B-16 tumor cells had been intraperitoneally transplanted, compound (I) being administered intraperitoneally once daily for 9 consecutive days.

[2] = Tetrahymena pyriformis W, 28° C., 44 to 48 hours, pH 7.0 medium, serial dilution, read-out: Antiprotozoal activity MIC

Row | SMILES | MIC (Tetrahymena pyriformis W; [2]) | Antitumor activities B-16 (T/C %) ([1]; 25 μg/kg) | Antitumor activities B-16 (T/C %) ([1]; 50 μg/kg) | Antitumor activities B-16 (T/C %) ([1]; 100 μg/kg) | Antitumor activities B-16 (T/C %) ([1]; 200 μg/kg) | MIC (Tetrahymena pyriformis W; Tetrahymena pyriformis, pH 7, read-out: Antiprotozoal activity MIC) | Antitumor activities B-16 (T/C %) ([1]; 12.5 μg/kg)
1 | COc1cc2cc(c1Cl)N(C)C(=O)CC(OC(=O)[C@H](Cc1ccccc1)N(C)C(C)=O)C1(C)OC1C(C)C1CC(O)(NC(=O)O1)C(OC)C=CC=C(C)C2 (stereo partly shown) | 1 µg/mL (≈ 1.3 µM) | 211% | 208% | 205% | 95% |  | 
2 | COc1cc2cc(c1Cl)N(C)C(=O)CC(OC(=O)[C@@H](CC(C)C)N(C)C(C)=O)C1(C)OC1C(C)C1CC(O)(NC(=O)O1)C(OC)C=CC=C(C)C2 (stereo partly drawn) [maytansinol 3-(N-acetyl-N-methyl)-D-leucine ester] |  |  |  |  |  | 28 µg/mL (≈ 38.1 µM) | 
3 | COc1cc2cc(c1Cl)N(C)C(=O)CC(OC(=O)[C@H](CC(C)C)N(C)C(C)=O)C1(C)OC1C(C)C1CC(O)(NC(=O)O1)C(OC)C=CC=C(C)C2 (stereo partly drawn) [maytansinol 3-(N-acetyl-N-methyl)-L-leucine ester] | 2 µg/mL (≈ 2.72 µM) | 171% | 209% | 202% | 65% |  | 
4 | COc1cc2cc(c1Cl)N(C)C(=O)CC(OC(=O)[C@H](C)N(C)C(=O)c1ccccc1)C1(C)OC1C(C)C1CC(O)(NC(=O)O1)C(OC)C=CC=C(C)C2 (stereo partly drawn) [maytansinol 3-(N-benzoyl-N-methyl)-L-alanine ester] | 2 to 4 µg/mL (≈ 2.65 to 5.3 µM) |  |  |  |  |  | 
5 | COc1cc2cc(c1Cl)N(C)C(=O)CC(OC(=O)[C@H](Cc1ccccc1)NC(=O)OC(C)(C)C)C1(C)OC1C(C)C1CC(O)(NC(=O)O1)C(OC)C=CC=C(C)C2 (stereo partly drawn) [maytansinol 3-(N-t-butyloxycarbonyl)-L-phenylalanine ester] | 4 µg/mL (≈ 4.92 µM) |  |  |  |  |  | 
6 | COc1cc2cc(c1Cl)N(C)C(=O)CC(OC(=O)[C@@H](C)N(C)C(=O)OC(C)(C)C)C1(C)OC1C(C)C1CC(O)(NC(=O)O1)C(OC)C=CC=C(C)C2 (stereo partly drawn) [maytansinol 3-(N-tert-butoxycarbonyl-N-methyl)-D-alanine ester] | 8 µg/mL (≈ 10.7 µM) |  |  |  |  |  | 
7 | COc1cc2cc(c1Cl)N(C)C(=O)CC(OC(=O)[C@H](C)N(C)C(=O)OC(C)(C)C)C1(C)OC1C(C)C1CC(O)(NC(=O)O1)C(OC)C=CC=C(C)C2 (stereo partly drawn) [maytansinol 3-(N-tert-butoxycarbonyl-N-methyl)-L-alanine ester] | 0.4 to 0.8 µg/mL (≈ 0.533 to 1.07 µM) | 178% | 198% | 193% |  |  | 163%
